Values belong to the compound of their own block, whether it stands above or below them. Activity calls are given as the source filed them. No cut-off for these calls is given here.
Experiments:
[1] = Resistance index, ratio of IC50 for antiplasmodial activity against chloroquine sensitive Plasmodium falciparum 3D7 infected in human erythrocytes to antiplasmodial activity against chloroquine resistant Plasmodium falciparum W2 infected in human erythrocytes; type: functional
Plasmodium falciparum [2] = assay: Antiplasmodial activity against sorbitol-synchronized ring stage chloroquine resistant Plasmodium falciparum W2 infected in human erythrocytes assessed as parasitic growth inhibition incubated for 48 to 50 hrs by SYBR Green 1 based microtiter plate spectrofluorimeteric analysis; type: functional, organism-based; settings: W2, Erythrocyte
Plasmodium falciparum [3] = assay: Antiplasmodial activity against sorbitol-synchronized ring stage chloroquine sensitive Plasmodium falciparum 3D7 infected in human erythrocytes assessed as parasitic growth inhibition incubated for 48 to 50 hrs by SYBR Green 1 based microtiter plate spectrofluorimeteric analysis; type: functional, organism-based; settings: 3D7, Erythrocyte
[4] = Hemolytic activity in human Red blood cells assessed as hemolysis at 100 uM incubated for 2 hrs by spectrofluorimetric analysis; type: toxicity, cell-based; settings: erythrocyte
A549 = assay: Cytotoxicity against human A549 cells assessed as inhibition of cell growth incubated for 24 hrs by MTT assay; type: functional, cell-based; settings: A549, 24 h
[5] = Selectivity index, ratio of IC50 for cytotoxicity against human […] cells to antiplasmodial activity against sorbitol-synchronized ring stage chloroquine resistant Plasmodium falciparum W2 infected in human erythrocytes; type: cell-based; settings: read-out: Ratio IC50
[6] = Selectivity index, ratio of IC50 for cytotoxicity against African green monkey Vero cells to antiplasmodial activity against sorbitol-synchronized ring stage chloroquine resistant Plasmodium falciparum W2 infected in human erythrocytes; type: toxicity, cell-based; settings: read-out: Ratio IC50
Plasmodium falciparum [7] = assay: Antiplasmodial activity against ring stage of Plasmodium falciparum assessed as developmental arrest at early trophozoite stage at 3 times IC50 concentration measured after 48 hrs by Giemsa staining based analysis; type: functional, organism-based
[8] = Selectivity index, ratio of IC50 for cytotoxicity against African green monkey Vero cells to antiplasmodial activity against sorbitol-synchronized ring stage chloroquine sensitive Plasmodium falciparum 3D7 infected in human erythrocytes; type: toxicity, cell-based; settings: read-out: Ratio IC50
[9] = Cytotoxicity against African green monkey Vero cells assessed as reduction in cell viability incubated for 72 hrs by MTT assay; type: toxicity, cell-based; settings: African green monkey (Chlorocebus sabaeus)
Plasmodium falciparum [10] = assay: Antiplasmodial activity against ring-stage Plasmodium falciparum assessed as reduction in formation of new rings at 3 times IC50 concentration measured after 48 hrs by Giemsa staining based analysis; type: functional, organism-based
[11] = Inhibition of Plasmodium falcipain-3 using Z-Leu-Arg-AMC as substrate preincubated for 30 mins followed by substrate addition and measured after 30 mins by microtiter plate spectrofluorimeteric analysis
[12] = Selectivity index, ratio of IC50 for cytotoxicity against human […] cells to antiplasmodial activity against sorbitol-synchronized ring stage chloroquine sensitive Plasmodium falciparum 3D7 infected in human erythrocytes; type: cell-based; settings: read-out: Ratio IC50
Plasmodium falciparum [13] = assay: Antiplasmodial activity against ring-stage Plasmodium falciparum assessed as enlarged feeding vacuoles with hemoglobin accumulation at 3 times IC50 concentration measured after 48 hrs by Giemsa staining based analysis; type: functional, organism-based
[14] = Inhibition of Plasmodium falcipain-2 using Z-Leu-Arg-AMC as substrate preincubated for 30 mins followed by substrate addition and measured after 30 mins by microtiter plate spectrofluorimeteric analysis
[15] = Inhibition of Plasmodium falciparum ATP4

SMILES: COc1cccc(NC(=S)N2CCN(c3nc(N4CCC5(CC4)CC(=O)c4ccccc4O5)c4ccccc4n3)CC2)c1
Ratio IC50 [1]: 1.47
IC50 (Plasmodium falciparum [2]): 3.87 µM
IC50 (Plasmodium falciparum [3]): 5.68 µM

SMILES: O=C1CC2(CCN(c3nc(N4CCN(C(=S)Nc5ccc(F)cc5F)CC4)nc4ccccc34)CC2)Oc2ccccc21
IC50 (Plasmodium falciparum [2]): > 15 µM
IC50 (Plasmodium falciparum [3]): 5.28 µM

SMILES: Cc1cccc(C)c1NC(=S)N1CCN(c2nc(N3CCC4(CC3)CC(=O)c3ccccc3O4)c3ccccc3n2)CC1
Ratio IC50 [1]: 0.68
Activity [4]: Non-toxic
IC50 (A549): 102 µM
selectivity ratio [5]: 14.3
IC50 (Plasmodium falciparum [2]): 7.12 µM
selectivity ratio [6]: > 140
Activity (Plasmodium falciparum [7]): Active
selectivity ratio [8]: > 207
IC50 at 72 h [9]: > 1 mM
Activity (Plasmodium falciparum [10]): Active
IC50 [11]: 6.4 µM
IC50 (Plasmodium falciparum [3]): 4.83 µM
selectivity ratio [12]: 21
Activity (Plasmodium falciparum [13]): Active
IC50 [14]: 5.9 µM

SMILES: O=C1CC2(CCN(c3nc(N4CCN(C(=S)Nc5ccccc5Cl)CC4)nc4ccccc34)CC2)Oc2ccccc21
Ratio IC50 [1]: 0.9
Activity [4]: Non-toxic
IC50 (A549): 67.2 µM
selectivity ratio [5]: 15.2
IC50 (Plasmodium falciparum [2]): 4.43 µM
selectivity ratio [6]: > 226
Activity (Plasmodium falciparum [7]): Active
selectivity ratio [8]: > 251
IC50 at 72 h [9]: > 1 mM
Activity (Plasmodium falciparum [10]): Active
IC50 [11]: 5.9 µM
IC50 (Plasmodium falciparum [3]): 3.98 µM
selectivity ratio [12]: 16.9
Activity (Plasmodium falciparum [13]): Active
IC50 [14]: 4.6 µM

SMILES: O=C1CC2(CCN(c3nc(N4CCN(C(=S)Nc5ccc(F)c(Cl)c5)CC4)nc4ccccc34)CC2)Oc2ccccc21
Ratio IC50 [1]: 0.89
Activity [4]: Non-toxic
IC50 (A549): 58.3 µM
selectivity ratio [5]: 16.4
IC50 (Plasmodium falciparum [2]): 3.56 µM
selectivity ratio [6]: > 281
Activity (Plasmodium falciparum [7]): Active
selectivity ratio [8]: > 314
IC50 at 72 h [9]: > 1 mM
Activity (Plasmodium falciparum [10]): Active
IC50 [11]: 4.9 µM
IC50 (Plasmodium falciparum [3]): 3.18 µM
selectivity ratio [12]: 18.3
Activity (Plasmodium falciparum [13]): Active
IC50 [14]: 3.9 µM

SMILES: O=C1CC2(CCN(c3nc(N4CCN(C(=S)Nc5cccc(Cl)c5)CC4)nc4ccccc34)CC2)Oc2ccccc21
IC50 (Plasmodium falciparum [2]): > 15 µM
IC50 (Plasmodium falciparum [3]): 6.37 µM

SMILES: Cc1ccc(NC(=S)N2CCN(c3nc(N4CCC5(CC4)CC(=O)c4ccccc4O5)c4ccccc4n3)CC2)cc1
IC50 (Plasmodium falciparum [2]): > 15 µM
IC50 (Plasmodium falciparum [3]): 16.1 µM

SMILES: O=C1CC2(CCN(c3nc(N4CCN(C(=S)Nc5cccc(C(F)(F)F)c5)CC4)nc4ccccc34)CC2)Oc2ccccc21
IC50 (Plasmodium falciparum [2]): > 15 µM
IC50 (Plasmodium falciparum [3]): 7.97 µM

SMILES: CC(C)C[C@H](NC(=O)[C@@H]1O[C@H]1C(=O)O)C(=O)NCCCCN=C(N)N
IC50 [11]: 0.116 µM
IC50 [14]: 0.0544 µM

SMILES: COc1ccc(NC(=S)N2CCN(c3nc(N4CCC5(CC4)CC(=O)c4ccccc4O5)c4ccccc4n3)CC2)cc1
IC50 (Plasmodium falciparum [2]): > 15 µM
IC50 (Plasmodium falciparum [3]): 23.3 µM

SMILES: COc1ccccc1NC(=S)N1CCN(c2nc(N3CCC4(CC3)CC(=O)c3ccccc3O4)c3ccccc3n2)CC1
Ratio IC50 [1]: 0.66
Activity [4]: Non-toxic
IC50 (A549): 82.5 µM
selectivity ratio [5]: 16.1
IC50 (Plasmodium falciparum [2]): 5.12 µM
selectivity ratio [6]: > 195
Activity (Plasmodium falciparum [7]): Active
selectivity ratio [8]: > 292
IC50 at 72 h [9]: > 1 mM
Activity (Plasmodium falciparum [10]): Active
IC50 [11]: 6.2 µM
IC50 (Plasmodium falciparum [3]): 3.42 µM
selectivity ratio [12]: 24.1
Activity (Plasmodium falciparum [13]): Active
IC50 [14]: 5.4 µM

SMILES: O=C1CC2(CCN(c3nc(N4CCN(C(=S)NCc5ccccc5)CC4)nc4ccccc34)CC2)Oc2ccccc21
Ratio IC50 [1]: 0.33
IC50 (A549): 214 µM
selectivity ratio [5]: 14.9
IC50 (Plasmodium falciparum [2]): 14.4 µM
selectivity ratio [6]: > 69.6
selectivity ratio [8]: > 209
IC50 at 72 h [9]: > 1 mM
IC50 [11]: 10.8 µM
IC50 (Plasmodium falciparum [3]): 4.79 µM
selectivity ratio [12]: 44.7
IC50 [14]: 10.4 µM

IC50 [15]: 1 nM
SMILES: C[C@H]1Cc2c([nH]c3cc(Cl)c(F)cc23)[C@@]2(N1)C(=O)Nc1ccc(Cl)cc12 [CIPARGAMIN]

SMILES: O=C1CC2(CCN(c3nc(N4CCN(C(=S)Nc5ccc(Br)cc5)CC4)nc4ccccc34)CC2)Oc2ccccc21
Ratio IC50 [1]: 1.51
IC50 (Plasmodium falciparum [2]): 4.84 µM
IC50 (Plasmodium falciparum [3]): 7.29 µM

SMILES: CCc1nc(N)nc(N)c1-c1ccc(Cl)cc1 [PYRIMETHAMINE]
IC50 (Plasmodium falciparum [2]): 0.129 µM

SMILES: O=C1CC2(CCN(c3nc(N4CCN(C(=S)Nc5ccccc5)CC4)nc4ccccc34)CC2)Oc2ccccc21
IC50 (Plasmodium falciparum [2]): > 15 µM
IC50 (Plasmodium falciparum [3]): 24.7 µM

SMILES: O=C1CC2(CCN(c3nc(N4CCN(C(=S)Nc5ccc(OC(F)(F)F)cc5)CC4)nc4ccccc34)CC2)Oc2ccccc21
IC50 (Plasmodium falciparum [2]): > 15 µM
IC50 (Plasmodium falciparum [3]): 3.88 µM

SMILES: O=C1CC2(CCN(c3nc(N4CCN(C(=S)Nc5ccc(F)cc5)CC4)nc4ccccc34)CC2)Oc2ccccc21
Ratio IC50 [1]: 0.52
IC50 (A549): 307 µM
selectivity ratio [5]: 34.1
IC50 (Plasmodium falciparum [2]): 8.98 µM
selectivity ratio [6]: > 111
selectivity ratio [8]: > 215
IC50 at 72 h [9]: > 1 mM
IC50 [11]: 14.4 µM
IC50 (Plasmodium falciparum [3]): 4.66 µM
selectivity ratio [12]: 65.8
IC50 [14]: 11.4 µM

SMILES: O=C1CC2(CCN(c3nc(N4CCN(C(=S)Nc5ccc(F)c(F)c5)CC4)nc4ccccc34)CC2)Oc2ccccc21
IC50 (Plasmodium falciparum [2]): > 15 µM
IC50 (Plasmodium falciparum [3]): 17.7 µM

Reference: ChEMBL document CHEMBL6134804, “Identifying thiourea-based hybrids of quinazoline and oxospirochromane as inhibitors of Plasmodium cysteine proteases arresting the parasitic growth at the early trophozoite stage” (Bioorg Med Chem Lett, 2025)
